Experimental data as given in PubChem BioAssay (NCI).
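Interpolation was linear, between the two tested concentrations surrounding the appropriate level; five concentrations were tested over 48 hours in 96-well plates. At the GI50, growth is halved. Definition used: TGI = concentration required for complete inhibition of growth.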

Experiments:
Assay in all cases: inhibition of tumour cell growth, NCI panel, 48 h
HCT-15 colon = tested on: HCT-15 colon
MALME-3M melanoma = tested on: MALME-3M melanoma
HOP-92 NSCLC = tested on: HOP-92 NSCLC
IGROV1 ovarian = tested on: IGROV1 ovarian
HCC-2998 colon = tested on: HCC-2998 colon
HS 578T breast = tested on: HS 578T breast
UO-31 renal = tested on: UO-31 renal
T-47D breast = tested on: T-47D breast
NCI-H460 lung = tested on: NCI-H460 lung
HT29 colon = tested on: HT29 colon
K-562 leukemia = tested on: K-562 leukemia
UACC-62 melanoma = tested on: UACC-62 melanoma
SF-295 CNS = tested on: SF-295 CNS
PC-3 prostate = tested on: PC-3 prostate
SF-539 CNS = tested on: SF-539 CNS
SF-268 CNS = tested on: SF-268 CNS
SK-MEL-28 melanoma = tested on: SK-MEL-28 melanoma
SW-620 colon = tested on: SW-620 colon
COLO 205 colon = tested on: COLO 205 colon
KM12 colon = tested on: KM12 colon
RXF 393 renal = tested on: RXF 393 renal
SNB-75 CNS = tested on: SNB-75 CNS
A549 NSCLC = tested on: A549 NSCLC
786-0 renal = tested on: 786-0 renal
ACHN renal = tested on: ACHN renal
MCF7 breast = tested on: MCF7 breast
A498 renal = tested on: A498 renal
NCI-H23 lung = tested on: NCI-H23 lung
HCT-116 colon = tested on: HCT-116 colon
CAKI-1 renal = tested on: CAKI-1 renal
CCRF-CEM leukemia = tested on: CCRF-CEM leukemia
UACC-257 melanoma = tested on: UACC-257 melanoma
BT-549 breast = tested on: BT-549 breast
HL-60(TB) leukemia = tested on: HL-60(TB) leukemia
MDA-MB-435 = tested on: MDA-MB-435
SK-MEL-5 melanoma = tested on: SK-MEL-5 melanoma
SK-OV-3 ovarian = tested on: SK-OV-3 ovarian
OVCAR-3 ovarian = tested on: OVCAR-3 ovarian
MDA-MB-231 breast = tested on: MDA-MB-231 breast
HOP-62 NSCLC = tested on: HOP-62 NSCLC
M14 melanoma = tested on: M14 melanoma
OVCAR-5 ovarian = tested on: OVCAR-5 ovarian
DU-145 prostate = tested on: DU-145 prostate
SN12C renal = tested on: SN12C renal
SNB-19 CNS = tested on: SNB-19 CNS
LOX IMVI melanoma = tested on: LOX IMVI melanoma
U251 CNS = tested on: U251 CNS
TK-10 renal = tested on: TK-10 renal

Nc1ncc(-c2cnn(C3CCNCC3)c2)cc1-c1nc2cc(Cl)ccc2o1
GI50 (HCT-15 colon): 495 nM
TGI (HCT-15 colon): 1710 nM
GI50 (MALME-3M melanoma): 1710 nM
TGI (MALME-3M melanoma): 3370 nM
GI50 (HOP-92 NSCLC): 808 nM
TGI (HOP-92 NSCLC): 2140 nM
GI50 (IGROV1 ovarian): 1040 nM
TGI (IGROV1 ovarian): 2430 nM
GI50 (HCC-2998 colon): 1470 nM
TGI (HCC-2998 colon): 2820 nM
GI50 (HS 578T breast): 385 nM
TGI (HS 578T breast): 1770 nM
GI50 (UO-31 renal): 484 nM
TGI (UO-31 renal): 1020 nM
GI50 (T-47D breast): 1620 nM
TGI (T-47D breast): 3340 nM
GI50 (NCI-H460 lung): 1680 nM
TGI (NCI-H460 lung): 3280 nM
GI50 (HT29 colon): 352 nM
TGI (HT29 colon): 1250 nM
GI50 (K-562 leukemia): 218 nM
TGI (K-562 leukemia): 444 nM
GI50 (UACC-62 melanoma): 1960 nM
TGI (UACC-62 melanoma): 3650 nM
GI50 (SF-295 CNS): 1960 nM
TGI (SF-295 CNS): 3680 nM
GI50 (PC-3 prostate): 1290 nM
TGI (PC-3 prostate): 2770 nM
GI50 (SF-539 CNS): 1550 nM
TGI (SF-539 CNS): 2910 nM
GI50 (SF-268 CNS): 1380 nM
TGI (SF-268 CNS): 2800 nM
GI50 (SK-MEL-28 melanoma): 1300 nM
TGI (SK-MEL-28 melanoma): 2680 nM
GI50 (SW-620 colon): 363 nM
TGI (SW-620 colon): 1340 nM
GI50 (COLO 205 colon): 1410 nM
TGI (COLO 205 colon): 2910 nM
GI50 (KM12 colon): 392 nM
TGI (KM12 colon): 1710 nM
GI50 (RXF 393 renal): 1550 nM
TGI (RXF 393 renal): 2920 nM
GI50 (SNB-75 CNS): 1650 nM
TGI (SNB-75 CNS): 3060 nM
GI50 (A549 NSCLC): 1530 nM
TGI (A549 NSCLC): 3110 nM
GI50 (786-0 renal): 1710 nM
TGI (786-0 renal): 3160 nM
GI50 (ACHN renal): 1650 nM
TGI (ACHN renal): 3080 nM
GI50 (MCF7 breast): 1140 nM
TGI (MCF7 breast): 2680 nM
GI50 (A498 renal): 1710 nM
TGI (A498 renal): 3120 nM
GI50 (NCI-H23 lung): 1620 nM
TGI (NCI-H23 lung): 3140 nM
GI50 (HCT-116 colon): 851 nM
TGI (HCT-116 colon): 2130 nM
GI50 (CAKI-1 renal): 1580 nM
TGI (CAKI-1 renal): 3090 nM
GI50 (CCRF-CEM leukemia): 222 nM
TGI (CCRF-CEM leukemia): 541 nM
GI50 (UACC-257 melanoma): 1290 nM
TGI (UACC-257 melanoma): 2590 nM
GI50 (BT-549 breast): 1610 nM
TGI (BT-549 breast): 3140 nM
GI50 (HL-60(TB) leukemia): 1560 nM
TGI (HL-60(TB) leukemia): 3200 nM
GI50 (MDA-MB-435): 1770 nM
TGI (MDA-MB-435): 3360 nM
GI50 (SK-MEL-5 melanoma): 1660 nM
TGI (SK-MEL-5 melanoma): 3080 nM
GI50 (SK-OV-3 ovarian): 1760 nM
TGI (SK-OV-3 ovarian): 3220 nM
GI50 (OVCAR-3 ovarian): 1730 nM
TGI (OVCAR-3 ovarian): 3260 nM
GI50 (MDA-MB-231 breast): 1660 nM
TGI (MDA-MB-231 breast): 3230 nM
GI50 (HOP-62 NSCLC): 1610 nM
TGI (HOP-62 NSCLC): 3100 nM
GI50 (M14 melanoma): 1790 nM
TGI (M14 melanoma): 3250 nM
GI50 (OVCAR-5 ovarian): 1770 nM
TGI (OVCAR-5 ovarian): 3220 nM
GI50 (DU-145 prostate): 1630 nM
TGI (DU-145 prostate): 3080 nM
GI50 (SN12C renal): 1240 nM
TGI (SN12C renal): 2710 nM
GI50 (SNB-19 CNS): 1560 nM
TGI (SNB-19 CNS): 2970 nM
GI50 (LOX IMVI melanoma): 1550 nM
TGI (LOX IMVI melanoma): 3070 nM
GI50 (U251 CNS): 1380 nM
TGI (U251 CNS): 2730 nM
GI50 (TK-10 renal): 1940 nM
TGI (TK-10 renal): 3580 nM
